Measurements taken from PubChem BioAssay AID330 (DTP/NCI, 2004).
Inconclusive results and toxic doses are left out. How the source made its calls: active means survival T/C of 150% or more; inactive means T/C below 125% in these data.

Test system: P388 leukemia ip, CD2F1 mice, survival T/C
Test: NCI In Vivo Anticancer Drug Screen. Data for tumor model P388 Leukemia (intraperitoneal) in CD2F1 (CDF1) mice
Settings: endpoint: median survival time, higher = longer survival
In short: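 Mice carrying the transplanted tumor received test compound or vehicle. Survival was recorded in each group, and the value is the treated-group measurement divided by that of the vehicle-treated control group.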

[1] = dose: 60.0 mg/kg/injection, schedule: Q01DX005 (ip), vehicle: saline with Tween-80
[2] = dose: 120.0 mg/kg/injection, schedule: Q01DX005 (ip), vehicle: saline with Tween-80
[3] = dose: 60.0 mg/kg/injection, schedule: Q01DX005 (ip), vehicle: Klucel (hydroxypropylcellulose) (HPC)
[4] = dose: 120.0 mg/kg/injection, schedule: Q01DX005 (ip), vehicle: Klucel (hydroxypropylcellulose) (HPC)
[5] = dose: 240.0 mg/kg/injection, schedule: Q01DX005 (ip), vehicle: Klucel (hydroxypropylcellulose) (HPC)
[6] = dose: 50.0 mg/kg/injection, schedule: Q01DX009 (ip), vehicle: saline with Tween-80
[7] = dose: 100.0 mg/kg/injection, schedule: Q01DX009 (ip), vehicle: saline with Tween-80
[8] = dose: 50.0 mg/kg/injection, schedule: Q01DX009 (ip), vehicle: Klucel (hydroxypropylcellulose) (HPC)
[9] = dose: 100.0 mg/kg/injection, schedule: Q01DX009 (ip), vehicle: Klucel (hydroxypropylcellulose) (HPC)
[10] = dose: 200.0 mg/kg/injection, schedule: Q01DX009 (ip), vehicle: Klucel (hydroxypropylcellulose) (HPC)
[11] = dose: 240.0 mg/kg/injection, schedule: Q01DX005 (ip), vehicle: saline with Tween-80

Measured: T/C

Cc1c(-c2cccc(Cl)n2)nc2ccccc2c1C(=O)O
inactive: dose: 100.0 mg/kg/injection, schedule: Q04DX002 (ip), vehicle: saline with Tween-80 99 % of control | dose: 200.0 mg/kg/injection, schedule: Q04DX002 (ip), vehicle: saline with Tween-80 99 % of control | dose: 400.0 mg/kg/injection, schedule: Q04DX002 (ip), vehicle: saline with Tween-80 99 % of control

CCCCc1ccc2nc(C)cc(N=[N+]=[N-])c2c1
inactive: [1] 100 % of control | [2] 98 % of control

Cc1ccc(NC(=O)Oc2ccc(C#N)cc2)cc1Cl
inactive: [3] 118 % of control | [4] 111 % of control | [5] 118 % of control

C[Si](C)(C)CNCCNC[Si](C)(C)C
inactive: [1] 105 % of control | [2] 98 % of control

CCC(SC)C(=O)c1ccccc1 (stereo not given)
inactive: dose: 25.0 mg/kg/injection, schedule: Q01DX009 (ip), vehicle: saline with Tween-80 114 % of control | [6] 100 % of control | [7] 101 % of control

COc1cccc2c1C1c3ccccc3Sc3cccc(c31)O2 (stereo not given)
inactive: dose: 25.0 mg/kg/injection, schedule: Q01DX005 (ip), vehicle: Klucel (hydroxypropylcellulose) (HPC) 98 % of control | dose: 50.0 mg/kg/injection, schedule: Q01DX005 (ip), vehicle: Klucel (hydroxypropylcellulose) (HPC) 100 % of control | dose: 100.0 mg/kg/injection, schedule: Q01DX005 (ip), vehicle: Klucel (hydroxypropylcellulose) (HPC) 100 % of control | dose: 200.0 mg/kg/injection, schedule: Q01DX005 (ip), vehicle: Klucel (hydroxypropylcellulose) (HPC) 99 % of control

O=c1[nH]c(=O)n2c(c1-c1ccccc1)OC(CBr)C2 (stereo not given)
inactive: [6] 98 % of control | [7] 98 % of control | dose: 200.0 mg/kg/injection, schedule: Q01DX009 (ip), vehicle: saline with Tween-80 86 % of control

C=CCNC(=S)Nc1ccccn1
inactive: dose: 50.0 mg/kg/injection, schedule: Q01DX005 (ip), vehicle: saline with Tween-80 104 % of control | dose: 100.0 mg/kg/injection, schedule: Q01DX005 (ip), vehicle: saline with Tween-80 100 % of control | dose: 200.0 mg/kg/injection, schedule: Q01DX005 (ip), vehicle: saline with Tween-80 102 % of control

C=CC(=O)NCCCCCC(=O)O
inactive: dose: 50.0 mg/kg/injection, schedule: Q01DX009 (ip), vehicle: saline 103 % of control | dose: 100.0 mg/kg/injection, schedule: Q01DX009 (ip), vehicle: saline 98 % of control | dose: 200.0 mg/kg/injection, schedule: Q01DX009 (ip), vehicle: saline 103 % of control

CC(=O)NC(=O)NC(C)=O
inactive: dose: 100.0 mg/kg/injection, schedule: Q01DX001 (ip), vehicle: methylcellulose (MC) 100 % of control | dose: 200.0 mg/kg/injection, schedule: Q01DX001 (ip), vehicle: methylcellulose (MC) 108 % of control | dose: 400.0 mg/kg/injection, schedule: Q01DX001 (ip), vehicle: methylcellulose (MC) 100 % of control

CSc1nc(N)c(C(N)=O)s1
inactive: [8] 100 % of control | [9] 103 % of control | [10] 109 % of control

O=C1C=CC2(C=C1)OCC(=O)O2
inactive: [1] 100 % of control | [2] 97 % of control | [11] 96 % of control

C=C(CC(=O)O)C(N)C(=O)O (stereo not given)
inactive: [3] 104 % of control | [4] 100 % of control | [5] 106 % of control

C=C1OC(=O)C(N)=C1C(C)=O
inactive: [1] 99 % of control | [2] 97 % of control | [11] 95 % of control

CC(=O)Nc1ccc(NC(=O)Nc2c(Cl)cccc2Cl)cc1
inactive: [8] 100 % of control | [9] 98 % of control | [10] 91 % of control

COC(=O)c1cc(-c2ccccn2)[nH]c(=O)c1C#N
inactive: dose: 60.0 mg/kg/injection, schedule: Q01DX005 (ip), vehicle: saline 104 % of control | dose: 120.0 mg/kg/injection, schedule: Q01DX005 (ip), vehicle: saline 100 % of control | dose: 240.0 mg/kg/injection, schedule: Q01DX005 (ip), vehicle: saline 97 % of control

Nc1nnc(-c2ccccc2)nn1
inactive: dose: 50.0 mg/kg/injection, schedule: Q01DX005 (ip), vehicle: Klucel + Tween-80 91 % of control | dose: 100.0 mg/kg/injection, schedule: Q01DX005 (ip), vehicle: Klucel + Tween-80 95 % of control | dose: 200.0 mg/kg/injection, schedule: Q01DX005 (ip), vehicle: Klucel + Tween-80 100 % of control

CCOC(=O)C1=NN(C)C(=O)C1
inactive: dose: 100.0 mg/kg/injection, schedule: Q01DX001 (ip), vehicle: saline with Tween-80 99 % of control | dose: 200.0 mg/kg/injection, schedule: Q01DX001 (ip), vehicle: saline with Tween-80 115 % of control | dose: 400.0 mg/kg/injection, schedule: Q01DX001 (ip), vehicle: saline with Tween-80 104 % of control

C/C(=N\[N+](C)(C)C)c1ccccc1
inactive: dose: 12.5 mg/kg/injection, schedule: Q04DX003 (ip), vehicle: saline with Tween-80 100 % of control | dose: 25.0 mg/kg/injection, schedule: Q04DX003 (ip), vehicle: saline with Tween-80 100 % of control | dose: 50.0 mg/kg/injection, schedule: Q04DX003 (ip), vehicle: saline with Tween-80 102 % of control | dose: 100.0 mg/kg/injection, schedule: Q04DX003 (ip), vehicle: saline with Tween-80 100 % of control

CCCCCCCCCC(=O)Oc1c2ccoc2cc2oc(=O)ccc12
inactive: dose: 100.0 mg/kg/injection, schedule: Q01DX001 (ip), vehicle: Klucel (hydroxypropylcellulose) (HPC) 98 % of control | dose: 200.0 mg/kg/injection, schedule: Q01DX001 (ip), vehicle: Klucel (hydroxypropylcellulose) (HPC) 91 % of control | dose: 400.0 mg/kg/injection, schedule: Q01DX001 (ip), vehicle: Klucel (hydroxypropylcellulose) (HPC) 103 % of control
